Results on ten compounds are retold here after ChEMBL document CHEMBL3734655, “Identification of camphor derivatives as novel M2 ion channel inhibitors of influenza A virus” (Medchemcomm, 2015).

Data set [1] can be described thus: Cytotoxicity against MDCK cells incubated for 72 hrs by CCK-8 assay. Format: cell-based, Canis lupus familiaris. The conditions noted are these: dog. For orientation: Tetrazolium assays rely on reduction of a dye to a coloured formazan, in cell work by metabolically active cells.
Data set [2] has as its system Influenza A virus H3N2. As to the kind of experiment: Antiviral activity against wild type M2 ion channel expressing Influenza A virus (A/Hong Kong/1968(H3N2)) infected in MDCK cells preincubated for 30 mins followed by viral infection measured after 72 hrs by CCK-8 assay. The format is functional, organism-based. Conditions: A/Hong Kong/1968, MDCK.
The test system of data set [3] is Influenza A virus H3N2. As to the kind of experiment: Antiviral activity against wild type Influenza A virus (A/Hong Kong/1968(H3N2)) infected in MDCK cells assessed as reduction in size and number of plaque at 1 uM after 2 to 3 days by crystal violet staining based assay. Format: functional, organism-based.
Data set [4] deals with Influenza A virus H3N2. Briefly: Antiviral activity against wild type Influenza A virus (A/Hong Kong/1968(H3N2)) infected in MDCK cells assessed as reduction in size and number of plaque at 0.2 uM after 2 to 3 days by crystal violet staining based assay. Format: functional, organism-based.
Data set [5] concerns Influenza A virus H3N2. As to the kind of experiment: Potency index, ratio of amantadine IC50 to compound IC50 for wild type M2 ion channel expressing Influenza A virus (A/Hong Kong/1968(H3N2)) infected in MDCK cells. The format is functional.

pIC50: −log10 of the molar value. Calls of active or inactive are those of the source. The rule behind the calls is not given here.

As for `C[C@H]1[C@H](N)C[C@@H]2C[C@H]1C2(C)C`, the MCC at 72 h in data set [1] is > 300 µM. Moreover, in the data set on Influenza A virus H3N2 [2], the pIC50 was 6.92.

For the compound `CC1(C)[C@@H]2CC[C@@]1(C)[C@@H](N)C2` (relative stereo), the MCC at 72 h in data set [1] was > 300 µM. In the data set with Influenza A virus H3N2 [2], this compound gave a negative-log IC50 (pIC50) of 6.31.

For `N[C@H]1C[C@@H]2CC[C@H]1C2`, the MCC at 72 h in data set [1] was > 300 µM. Also, in the data set on Influenza A virus H3N2 [2], the pIC50 was 4.91.

As to `C[C@@H](N)[C@H]1C[C@H]2CC[C@]1(C)C2(C)C.Cl`, the result in the data set on Influenza A virus H3N2 [3] and in the data set on Influenza A virus H3N2 [4] was Active. The MCC at 72 h in data set [1] was > 300 µM. Moreover, the “Ratio IC50” value in the data set on Influenza A virus H3N2 [5] was determined as 5. This compound gave a negative-log IC50 (pIC50) in the data set with Influenza A virus H3N2 [2] of 7.00.

Regarding `C[C@H]1[C@H](CN)C[C@@H]2C[C@H]1C2(C)C`, in data set [1], the MCC at 72 h was > 300 µM. In addition, the pIC50 with Influenza A virus H3N2 [2] is 5.61.

Regarding `C[C@H]1[C@H]([C@H](C)N)C[C@@H]2C[C@H]1C2(C)C`, the MCC at 72 h in data set [1] is > 300 µM. Besides, the negative-log IC50 (pIC50) in the data set with Influenza A virus H3N2 [2] was 5.71.

Consider `CC1(C)[C@H]2CC[C@](C)(C2)[C@H]1CN`, for which, in data set [1], the MCC at 72 h was > 300 µM. The same compound had a negative-log IC50 (pIC50) in the data set with Influenza A virus H3N2 [2] of 4.80.

Take `NC1CC2CCC1C2` (configuration not stated): in data set [1], the MCC at 72 h is > 300 µM. Further, the pIC50 in the data set with Influenza A virus H3N2 [2] was 4.76.

`NC12CC3CC(CC(C3)C1)C2` [AMANTADINE] showed a negative logarithm of the IC50 (pIC50) with Influenza A virus H3N2 [2] of 6.30.

In the case of `CC1(C)[C@@H]2CC[C@@]1(C)[C@@H](CN)C2`, the MCC at 72 h in data set [1] was > 300 µM. Also, the negative-log IC50 (pIC50) with Influenza A virus H3N2 [2] was 6.54.

A word on the pIC50: it is the IC50 on a negative log10 scale, so that one unit is a factor of ten. Read a high pIC50 as a small IC50.
